Patent US20260041683A1, “Compounds with Anti-Acinetobacter Baumannii Activity” (University of Kentucky Research Foundation, priority 2022, published 2026)
≈ marks a conversion by molar mass, not a printed value.

Experiments:
[1] = system: all 43 strains of A. baumannii (41 CDC strains and 2 ATCC strains); assay: MIC value statistics for all A. baumannii strains; format: cell-based, Acinetobacter baumannii; conditions: of 43 A. baumannii strains
Experimental: All bacterial strains listed above were stored at −80° C. All strains were streaked on Mueller-Hinton (MH) plates and allowed to grow at 37° C. overnight. Enough colonies were scraped from the plate and suspended in MH broth with vortexing to reach an attenuance at 600 nm (OD600) of ˜0.5. The resulting culture was diluted 1:1000 and added to the prepared serially doubly diluted compound solutions in 96-well plates. […]. For each row, one well was reserved for sterile control (which consisted of 200 μL of MH medium) and another well was reserved for growth control (which consisted of 100 μL of MH medium seeded with 100 μL of bacterial culture).
Having established that the observed activity is selective to A. baumannii, all synthesized compounds were tested against a panel of antibiotic resistant A. baumannii from the Antimicrobial Resistant (AR) Isolate Bank from the CDC along with strains I and J (Table Si). […]. Based on this statistical analysis, the best compound is 5e followed closely by 3e.

[2] = system: Ab ATCC 19606 (strain I); assay: MIC determination (double dilution, Mueller-Hinton broth); format: cell-based, Acinetobacter baumannii; conditions: Acinetobacter baumannii, ATCC19606; Table 1; control strain; read-out: MIC Ab ATCC 19606
Experimental: All bacterial strains listed above were stored at −80° C. All strains were streaked on Mueller-Hinton (MH) plates and allowed to grow at 37° C. overnight. […] The resulting culture was diluted 1:1000 and added to the prepared serially doubly diluted compound solutions in 96-well plates. For M. smegmatis, a 1:100 dilution of the bacteria was done in MH. All MIC values were determined using 96-well plates with low evaporation seals at least in duplicate. For each row, one well was reserved for sterile control (which consisted of 200 μL of MH medium) and another well was reserved for growth control (which consisted of 100 μL of MH medium seeded with 100 μL of bacterial culture).
(§1) Minimum inhibitory concentrations (MIC) of all compounds from the series were measured in liquid cultures of different Ab strains by a double-dilution method in Mueller-Hinton broth. Initially, the activity of all 46 compounds against Ab ATCC 19606 (a control strain) and Ab ATCC BAA1605 (a multidrug-resistant strain) (Table 1; data shown for 27 representative compounds) was measured.

[3] = system: Ab ATCC BAA1605 (strain J, multidrug-resistant); assay: MIC determination; format: cell-based; conditions: Acinetobacter baumannii; Table 1; multidrug-resistant strain; read-out: MIC Ab ATCC BAA 1605
Experimental: All bacterial strains listed above were stored at −80° C. All strains were streaked on Mueller-Hinton (MH) plates and allowed to grow at 37° C. overnight. Enough colonies were scraped from the plate and suspended in MH broth with vortexing to reach an attenuance at 600 nm (OD600) of ˜0.5. The resulting culture was diluted 1:1000 and added to the prepared serially doubly diluted compound solutions in 96-well plates. For M. smegmatis, a 1:100 dilution of the bacteria was done in MH. All MIC values were determined using 96-well plates with low evaporation seals at least in duplicate. For each row, one well was reserved for sterile control (which consisted of 200 μL of MH medium) and another well was reserved for growth control (which consisted of 100 μL of MH medium seeded with 100 μL of bacterial culture).
as §1

Compound	number of compound/strain combinations with MIC value 0.25 μg/mL [1]	number of compound/strain combinations with MIC value 0.5 μg/mL [1]	number of compound/strain combinations with MIC value 1 μg/mL [1]	number of compound/strain combinations with MIC value ≤0.125 μg/mL [1]	MIC [2] [µg/mL]	MIC [3] [µg/mL]	number of compound/strain combinations with MIC value 2 μg/mL [1]	number of compound/strain combinations with MIC value >64 μg/mL [1]
O=C(NNc1cccc(F)c1)c1ncc(F)cc1F [Compound 7a]	5	19	18	1	–	–	–	–
O=C(NNc1ccc(Cl)cc1)c1ncc(F)cc1F [Compound 7e]	28	7	–	8	0.125 (≈ 0.441 µM)	0.125 (≈ 0.441 µM)	–	–
O=C(NNc1cccc(F)c1)c1cnc2ccccc2n1 [Compound 13a]	6	19	15	–	–	–	3	–
O=C(NNC1CCCCC1)c1ccc(F)cc1F [Compound 1h]	–	–	–	–	–	–	–	43
O=C(NNc1cccc(F)c1)c1cccnc1 [Compound 11a]	11	26	4	2	0.25 (≈ 1.08 µM)	0.5 (≈ 2.16 µM)	–	–
CCOC(=O)CNNC(=O)c1cccc(F)n1 [Compound 5g]	–	–	–	–	> 64	> 64	–	43
CCC(=O)NNc1cccc(F)c1 [Compound 16a]	10	15	14	4	–	–	–	–
O=C(NNc1cccc(F)c1)c1ccccn1 [Compound 2a]	10	18	10	2	2 (≈ 8.65 µM)	0.5 (≈ 2.16 µM)	3	–
O=C(NNC1CCCCC1)c1cccnc1 [Compound 11h]	–	–	–	–	> 64	> 64	–	43
O=C(NNc1ccc(Cl)cc1)c1cccnc1 [Compound 11e]	15	19	4	5	–	–	–	–
O=C(NNC1CCCCC1)c1cnccn1 [Compound 9h]	–	–	–	–	–	–	–	43
O=C(NNc1cccc(F)c1)c1cccc(Br)n1 [Compound 6a]	4	16	19	–	0.5 (≈ 1.61 µM)	0.5 (≈ 1.61 µM)	4	–
CCOC(=O)CNNC(=O)c1ccccn1 [Compound 2g]	–	–	–	–	–	–	–	43
O=C(NNc1cccc(F)c1)c1nc(F)ccc1F [Compound 8a]	11	12	18	2	–	–	–	–
O=C(NNc1ccc(Cl)cc1)c1cnccn1 [Compound 9e]	8	19	15	1	–	–	–	–
CCOC(=O)CNNC(=O)c1ccc(F)cn1 [Compound 3g]	–	–	–	–	> 64	> 64	–	43
O=C(NNc1cccc(F)c1)c1ccc(Br)cn1 [Compound 4a]	2	8	19	–	0.5 (≈ 1.61 µM)	0.5 (≈ 1.61 µM)	14	–
O=C(NNc1ccc(Cl)cc1)c1cnc2ccccc2n1 [Compound 13e]	9	22	12	–	0.5 (≈ 1.67 µM)	0.25 (≈ 0.837 µM)	–	–
CCOC(=O)CNNC(=O)c1ccc(F)cc1F [Compound 1g]	–	–	–	–	–	–	–	43
CCOC(=O)CNNC(=O)c1cnccn1 [Compound 9g]	–	–	–	–	–	–	–	43
O=C(NNc1cccc(F)c1)c1cccc(F)n1 [Compound 5a]	1	8	25	–	–	–	9	–
O=C(NNc1cccc(F)c1)c1ccco1 [Compound 15a]	21	16	–	6	–	–	–	–
O=C(NNc1ccc(Cl)cc1)c1nc(F)ccc1F [Compound 8e]	34	2	–	7	0.125 (≈ 0.441 µM)	0.0625 (≈ 0.22 µM)	–	–
O=C(NNc1cccc(F)c1)c1ccc(F)cc1F [Compound 1a]	3	26	9	1	–	–	4	–
O=C(NNc1cccc(F)c1)c1ccccc1 [Compound 10a]	19	17	1	6	0.25 (≈ 1.09 µM)	0.5 (≈ 2.17 µM)	–	–
O=C(NNc1cccc(F)c1)c1cc2ccccc2[nH]1 [Compound 14a]	13	25	5	–	0.25 (≈ 0.928 µM)	0.25 (≈ 0.928 µM)	–	–
